# Data reported in the supplement of paper PMC10307832.
# What was measured:
# Assay in all cases: relative viability (nuclei count vs DMSO), 5 days (fraction); higher = more cells survive
# NCI-H647 = system: NCI-H647
# How it was run: (§1)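 Relative viability is defined as nuclei in treated wells over nuclei in vehicle wells. Duplicate plates were run and medians reported. Lung cancer cell lines in 1536-well plates were dosed by pin tool one day after seeding, with one drug or with a fixed anchor-drug dose plus five library-drug doses (not always all listed) in √10 steps, and nuclei were counted after 5 days.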
# UMC-11 = system: UMC-11
# How it was run: as §1
# COR-L23 = system: COR-L23
# How it was run: as §1
# NCI-H1650 = system: NCI-H1650
# How it was run: as §1
# NCI-H322M = system: NCI-H322M
# How it was run: as §1
# NCI-H441 = system: NCI-H441
# How it was run: as §1
# EPLC-272H = system: EPLC-272H
# How it was run: as §1
# HCC-15 = system: HCC-15
# How it was run: as §1
# H3255 = system: H3255
# How it was run: as §1
# SW 900 = system: SW 900
# How it was run: as §1
# 201T = system: 201T
# How it was run: as §1
# NCI-H2405 = system: NCI-H2405
# How it was run: as §1
# NCI-H1734 = system: NCI-H1734
# How it was run: as §1
# NCI-H1793 = system: NCI-H1793
# How it was run: as §1
# NCI-H2170 = system: NCI-H2170
# How it was run: as §1
# NCI-H2347 = system: NCI-H2347
# How it was run: as §1
# NCI-H2023 = system: NCI-H2023
# How it was run: as §1
# NCI-H520 = system: NCI-H520
# How it was run: as §1
# PC-14 = system: PC-14
# How it was run: as §1
# LOU-NH91 = system: LOU-NH91
# How it was run: as §1
# NCI-H3122 = system: NCI-H3122
# How it was run: as §1
structure (smiles),measurement,setting,value
O=c1cc(-c2cccc3c2Sc2ccccc2S3)oc(N2CCOCC2)c1 + O=C(CCCCCCC(=O)Nc1ccccc1)NO [Vorinostat] (partner 1 µM),relative viability,NCI-H647; first compound 0.08 µM,0.527
same,relative viability,NCI-H647; first compound 0.253 µM,0.691
same,relative viability,NCI-H647; first compound 0.8 µM,0.766
same,relative viability,NCI-H647; first compound 2.53 µM,0.638
same,relative viability,NCI-H647; first compound 8 µM,0.782
same,relative viability,UMC-11; first compound 0.08 µM,0.312
same,relative viability,UMC-11; first compound 0.253 µM,0.454
same,relative viability,UMC-11; first compound 0.8 µM,0.362
same,relative viability,UMC-11; first compound 2.53 µM,0.394
same,relative viability,UMC-11; first compound 8 µM,0.336
same,relative viability,COR-L23; first compound 0.08 µM,0.472
same,relative viability,COR-L23; first compound 0.253 µM,0.457
same,relative viability,COR-L23; first compound 0.8 µM,0.397
same,relative viability,COR-L23; first compound 2.53 µM,0.442
same,relative viability,COR-L23; first compound 8 µM,0.446
same,relative viability,NCI-H1650; first compound 0.08 µM,0.535
same,relative viability,NCI-H1650; first compound 0.253 µM,0.643
same,relative viability,NCI-H1650; first compound 0.8 µM,0.602
same,relative viability,NCI-H1650; first compound 2.53 µM,0.502
same,relative viability,NCI-H1650; first compound 8 µM,0.556
same,relative viability,NCI-H322M; first compound 0.08 µM,0.839
same,relative viability,NCI-H322M; first compound 0.253 µM,1.01
same,relative viability,NCI-H322M; first compound 0.8 µM,0.948
same,relative viability,NCI-H322M; first compound 2.53 µM,0.825
same,relative viability,NCI-H322M; first compound 8 µM,0.867
same,relative viability,NCI-H441; first compound 0.08 µM,0.921
same,relative viability,NCI-H441; first compound 0.253 µM,1.01
same,relative viability,NCI-H441; first compound 0.8 µM,1.14
same,relative viability,NCI-H441; first compound 2.53 µM,0.838
same,relative viability,NCI-H441; first compound 8 µM,0.935
same,relative viability,EPLC-272H; first compound 0.08 µM,0.449
same,relative viability,EPLC-272H; first compound 0.253 µM,0.363
same,relative viability,EPLC-272H; first compound 0.8 µM,0.291
same,relative viability,EPLC-272H; first compound 2.53 µM,0.629
same,relative viability,EPLC-272H; first compound 8 µM,0.441
same,relative viability,HCC-15; first compound 0.08 µM,0.906
same,relative viability,HCC-15; first compound 0.253 µM,0.952
same,relative viability,HCC-15; first compound 0.8 µM,0.82
same,relative viability,HCC-15; first compound 2.53 µM,0.722
same,relative viability,HCC-15; first compound 8 µM,0.808
same,relative viability,H3255; first compound 0.08 µM,0.811
same,relative viability,H3255; first compound 0.253 µM,0.78
same,relative viability,H3255; first compound 0.8 µM,0.805
same,relative viability,H3255; first compound 2.53 µM,0.878
same,relative viability,H3255; first compound 8 µM,0.896
same,relative viability,SW 900; first compound 0.253 µM,0.529
same,relative viability,SW 900; first compound 0.8 µM,0.493
same,relative viability,SW 900; first compound 2.53 µM,0.427
same,relative viability,SW 900; first compound 8 µM,0.393
same,relative viability,201T; first compound 0.08 µM,0.919
same,relative viability,201T; first compound 0.253 µM,1.05
same,relative viability,201T; first compound 0.8 µM,0.976
same,relative viability,201T; first compound 2.53 µM,0.912
same,relative viability,201T; first compound 8 µM,0.884
same,relative viability,NCI-H2405; first compound 0.08 µM,0.925
same,relative viability,NCI-H2405; first compound 0.253 µM,0.99
same,relative viability,NCI-H2405; first compound 0.8 µM,1.06
same,relative viability,NCI-H2405; first compound 2.53 µM,0.842
same,relative viability,NCI-H2405; first compound 8 µM,0.983
same,relative viability,NCI-H1734; first compound 0.08 µM,0.771
same,relative viability,NCI-H1734; first compound 0.253 µM,0.94
same,relative viability,NCI-H1734; first compound 0.8 µM,0.824
same,relative viability,NCI-H1734; first compound 8 µM,0.993
same,relative viability,NCI-H1793; first compound 0.08 µM,0.653
same,relative viability,NCI-H1793; first compound 0.253 µM,0.846
same,relative viability,NCI-H1793; first compound 0.8 µM,0.541
same,relative viability,NCI-H1793; first compound 2.53 µM,0.627
same,relative viability,NCI-H1793; first compound 8 µM,0.804
same,relative viability,NCI-H2170; first compound 0.08 µM,0.857
same,relative viability,NCI-H2170; first compound 0.253 µM,0.952
same,relative viability,NCI-H2170; first compound 0.8 µM,0.92
same,relative viability,NCI-H2170; first compound 2.53 µM,0.693
same,relative viability,NCI-H2170; first compound 8 µM,0.932
same,relative viability,NCI-H2347; first compound 0.08 µM,0.606
same,relative viability,NCI-H2347; first compound 0.253 µM,0.609
same,relative viability,NCI-H2347; first compound 0.8 µM,0.548
same,relative viability,NCI-H2347; first compound 2.53 µM,0.499
same,relative viability,NCI-H2347; first compound 8 µM,0.46
same,relative viability,NCI-H2023; first compound 0.08 µM,0.707
same,relative viability,NCI-H2023; first compound 0.253 µM,0.752
same,relative viability,NCI-H2023; first compound 0.8 µM,0.718
same,relative viability,NCI-H2023; first compound 2.53 µM,0.583
same,relative viability,NCI-H2023; first compound 8 µM,0.451
same,relative viability,NCI-H520; first compound 0.08 µM,0.704
same,relative viability,NCI-H520; first compound 0.253 µM,0.856
same,relative viability,NCI-H520; first compound 0.8 µM,0.741
same,relative viability,NCI-H520; first compound 2.53 µM,0.787
same,relative viability,NCI-H520; first compound 8 µM,0.648
same,relative viability,PC-14; first compound 0.08 µM,0.734
same,relative viability,PC-14; first compound 0.253 µM,0.879
same,relative viability,PC-14; first compound 0.8 µM,0.685
same,relative viability,PC-14; first compound 2.53 µM,0.628
same,relative viability,PC-14; first compound 8 µM,0.701
same,relative viability,LOU-NH91; first compound 0.08 µM,0.91
same,relative viability,LOU-NH91; first compound 0.253 µM,0.943
same,relative viability,LOU-NH91; first compound 0.8 µM,0.854
same,relative viability,LOU-NH91; first compound 2.53 µM,0.745
same,relative viability,LOU-NH91; first compound 8 µM,0.898
same,relative viability,NCI-H3122; first compound 0.08 µM,0.99
same,relative viability,NCI-H3122; first compound 0.253 µM,1.2
same,relative viability,NCI-H3122; first compound 0.8 µM,1.09
same,relative viability,NCI-H3122; first compound 2.53 µM,0.93
same,relative viability,NCI-H3122; first compound 8 µM,1.05
